In patent US11247984B2, “Uracil containing compounds” (CV6 Therapeutics (NI) Limited, priority 2017, dated 2022):
pIC50: −log10 of the molar value.

Tests used:
[1] = molecular target: T1, recombinant human deoxyuridine nucleotidohydrolase (dUTPase) (Homo sapiens, UniProt P33316); experiment: fluorescence-based dUTPase inhibition assay; assay type: biochemical; settings: for % relative inhibition vs. positive control: mean across three concentrations, typically 100, 50 and 25 μmol/L, compared to in-run positive control
T1 construct: made in house
T1 sequence (P33316 1-164 isoform P33316-2): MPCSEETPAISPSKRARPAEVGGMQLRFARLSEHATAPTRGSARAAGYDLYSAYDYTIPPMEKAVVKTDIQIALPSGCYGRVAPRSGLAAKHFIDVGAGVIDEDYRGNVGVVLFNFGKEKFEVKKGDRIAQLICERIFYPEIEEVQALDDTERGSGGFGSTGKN
Source text: Recombinant human deoxyuridine nucleotidohydrolase (dUTPase) is expressed and purified as described in Ladner R D, Carr S A, Huddleston M J, McNulty D E, Caradonna S J. J Biol Chem. 1996 Mar. 29; 271(13):7752-7. All drugs stocks are aliquoted and diluted as appropriate prior to use. The oligonucelotide primer, templates and fluorophore- and quencher-labeled detection probes are synthesized by Integrated DNA Technologies (Coralville, Iowa), subjected to polyacrylamide gel electrophoresis purification and reconstituted in Omnipur sterile nuclease-free water (EMD Chemicals USA, Gibbstown N.J.) at a stock concentration of 100 μmol/L. The two non-emissive (dark) quenching molecules incorporated into the detection probes include the Iowa black fluorescein quencher (IBFQ; absorption max 531 nm) and ZEN (non-abbreviation; absorption max 532 nm). The fluorescent label utilized is 6-FAM (5′-carboxyfluorescein; excitation max.=494 nm, emission max.=520 nm). Probes are further diluted to a working stock of 10 μmol/L and aliquoted to avoid repeated freeze/thaw cycles. AmpliTaq Gold DNA Polymerase, GeneAmp 10×PCR Buffer 2, MgCl2 and MicroAmp Optical 96-well Reaction Plates are purchased from Applied Biosystems (Carlsbad, Calif.). dNTPs are purchased individually at stock concentrations of 100 mmol/L from New England Biolabs at HPLC-certified >99% purity (Ipswich, Mass.).
Reaction mixtures contained primer, probe and template at an equimolar final concentration of 0.4 μmol/L. Magnesium chloride (MgCl2) is included at a final concentration of 2 mmol/L. Non-limiting dNTPs are included in the reaction mix in excess at a final concentration of 100 μmol/L (dUTP/dTTP is excluded). AmpliTaq Gold DNA polymerase is added at 0.875 U/reaction, 2.5 μl of 10×PCR buffer 2 added and nuclease-free ddH2O added to a final reaction volume of 25 μl. For dUTP inhibition analysis, the volume of ddH2O is further modified to accommodate an additional 1 μl of dUTPase (10 ng/μt) and 1 μl of inhibitor or DMSO control. Thermal profiling and fluorescence detection is performed using a customized thermal program on board a Roche Lightcycler LC480 Instrument II. For analysis of dNTPs, the thermal profile consisted of an 8 min 37° C. step followed by a 10 min 95° C. step to ‘hot-start’ the Taq polymerase and a primer extension time of up to 30 min at 60° C. Raw fluorescence spectra for 6-FAM is measured at specified time intervals to follow assay progression on board a Roche LightCycler 480 Software Version 1.5 and exported and analyzed in Microsoft Excel (Microsoft, Redmond Wash.) and Prism (GraphPad Software, La Jolla Calif.). Fluorescence values for blank reactions (limiting dNTP omitted) are subtracted to give normalized fluorescence units (NFU) to account for background fluorescence.
Test compounds are screened in a fluorescence-based assay. The assay employs a DNA polymerase-based approach utilizing an oligonucleotide template with 3 distinct regions: a 3′ primer binding region, a mid-template dUTP/thymidine triphosphate (TTP) detection region and a 5′ 6-[…] (FAM)-labeled probe binding region that incorporates a black hole quenching moiety. During the reaction, the probe and primer hybridize to the oligonucleotide template to form the template:primer:probe complex. When Taq polymerase binds to the primer in the TPP complex and dUTP is present, successful extension of the nascent strand occurs and the inherent 5′ to 3′ exonuclease activity of Taq polymerase cleaves and displaces the 6-FAM-labeled probe in a 5′ to 3′ direction, releasing the 6-FAM fluorophore from its proximity to the […]. This displacement effectively disrupts the Forster resonance energy transfer (FRET) and the resulting fluorescence detected upon excitation is directly proportional to the amount of the dUTP available in the assay for incorporation. […]

[2] = tested on: colorectal (HCT116 and SW620) cell line models; experiment: MTS growth inhibition assay; assay type: cell-based; settings: 5-FU between 0 and 100 μmol/L
Protocol: The Cell Titer AQueous MTS assay (Promega) is carried out according to the manufacturers guidelines. […] The combination effect is determined by the combination index (CI) method utilizing Calcusyn software (Biosoft, Ferguson, Mo.). Fraction affected (FA) is calculated from the percent growth inhibition: FA=[…]. CI values <1, synergism; 1-1.2, additive and >1.2, antagonism.
Test compounds are evaluated for their antitumor activity in colorectal cancer cells using the MTS growth inhibition assay. HCT116 and SW620 cells are exposed to increasing concentrations of each agent for 72 hours and growth inhibition is directly compared to vehicle-treated controls. The NSCLC cell lines A549 and H1299 are exposed to increasing concentrations of each agent for 72 hours and growth inhibition is directly compared to vehicle-treated controls.
MTS growth inhibition assays are performed to evaluate the effectiveness of the test compounds alone and in combination with the fluoropyrimidine thymidylate synthase (TS) inhibitor 5-fluorouracil (5-FU) at inhibiting the growth of colorectal (HCT116 and SW620) cell line models. […] Simultaneous treatment with increasing concentrations of 5-FU and a test compound at fixed concentrations of 25 μmol/L is determined.

[3] = tested on: colorectal (HCT116), breast (MCF-7) and non-small cell lung (H1299, A549, H358 and H460) cell line models; experiment: colony forming assay; assay type: cell-based; settings: FUdR between 0.5 and 2.5 μmol/L; all cell lines evaluated
Protocol: Colony forming assay showing the ability of colon (SW620, HCT116), non-small cell lung (A549, H460, H1299 and H358) and breast (MCF7) cancer cells to survive and proliferate following transient 24 hour exposure to test compounds, FUdR and combinations are determined. Specifically, cells are seeded at densities between 50 and 100 cells/well in 24-well plates. Twenty-four hours later, cells are treated with increasing concentrations of a rtest compound, a fixed dose of FUdR and combinations of these. After 24 hours, drug is removed, cells are rinsed and allowed to outgrow for 10-14 days. At the conclusion of the outgrowth, cells are fixed in 60% ice cold methanol and stained with 0.1% crystal violet, scanned and counted. Data is presented as percentage of untreated controls (mean±SD). Fraction affected and combination indexes are calculated according to the method of Chou and Talalay where <1 is indicative of a synergistic drug interaction.
Colony forming assays are performed to evaluate the effectiveness of test compounds alone and in combination with the fluoropyrimidine thymidylate synthase (TS) inhibitor fluorodeoxyuridine (FUdR) at reducing cancer cell viability in colorectal (HCT116), breast (MCF-7) and non-small cell lung (H1299, A549, H358 and H460) cell line models. […]

Row | SMILES | % relative inhibition vs. positive control [1] | other results
1 | CC(C)[C@@H](NS(=O)(=O)CCCCCN1CCC(=O)NC1=O)c1ccc(F)c(OCC2CC2)c1 [Example 80, (R)—N-(1-(3-(cyclopropylmethoxy)-4-fluorophenyl)-2-methylpropyl)-5-(2,4-dioxotetrahydropyrimidin-1(2H)-yl)pentane-1-sulfonamide] | 103% | –
2 | O=c1[nH]cc(F)c(=O)[nH]1 [Example 5-FU, 5-fluorouracil] | – | growth inhibition [2]: dose-dependent increases in growth inhibition
3 | C[C@@H](NS(=O)(=O)CCCCCn1ccc(=O)[nH]c1=O)c1ccc(F)c(OCC2CC2)c1 [Example 84, (R)—N-(1-(3-(cyclopropylmethoxy)-4-fluorophenyl)ethyl)-5-(2,4-dioxo-3,4-dihydropyrimidin-1(2H)-yl)pentane-1-sulfonamide] | 214% | pIC50 ([1]; recombinant dUTPase, 8 min at 37° C.): 6.52
4 | O=c1[nH]c(=O)n([C@H]2C[C@H](O)[C@@H](CO)O2)cc1F [FUdR, fluorodeoxyuridine] | – | colonies formed [3]: dose-dependent decreases in colonies formed
5 | CC(C)[C@@H](NS(=O)(=O)CC/C=C/CN1CCC(=O)NC1=O)c1ccc(F)c(OCC2CC2)c1 [Example 79, (R,E)-N-(1-(3-(cyclopropylmethoxy)-4-fluorophenyl)-2-methylpropyl)-5-(2,4-dioxotetrahydropyrimidin-1(2H)-yl)pent-3-ene-1-sulfonamide] | 145% | –
6 | CC(C)COc1cc(C(C)(C)NS(=O)(=O)CC/C=C/CN2CCC(=O)NC2=O)ccc1F [Example 81, (E)-5-(2,4-dioxotetrahydropyrimidin-1(2H)-yl)-N-(2-(4-fluoro-3-isobutoxyphenyl)propan-2-yl)pent-3-ene-1-sulfonamide] | 80% | –
7 | C[C@@H](NS(=O)(=O)CCCOCN1CCC(=O)NC1=O)c1cccc(OCC2CC2)c1 [Example 82, (R)—N-(1-(3-(cyclopropylmethoxy)phenyl)ethyl)-3-((2,4-dioxotetrahydropyrimidin-1(2H)-yl)methoxy)propane-1-sulfonamide] | 174% | –
8 | CC[C@@H](NS(=O)(=O)CCCOCN1CCC(=O)NC1=O)c1ccc(F)c(OCC2CC2)c1 [Example 83, (R)—N-(1-(3-(cyclopropylmethoxy)-4-fluorophenyl)propyl)-3-((2,4-dioxotetrahydropyrimidin-1(2H)-yl)methoxy)propane-1-sulfonamide] | 166% | –
9 | C[C@H](NS(=O)(=O)CCCCCn1ccc(=O)[nH]c1=O)c1ccc(F)c(OCC2CC2)c1 [Example 86, (S)—N-(1-(3-(cyclopropylmethoxy)-4-fluorophenyl)ethyl)-5-(2,4-dioxo-3,4-dihydropyrimidin-1(2H)-yl)pentane-1-sulfonamide] | 54% | –
